1 substance from patent publication US7148026B2, “Dog melanin-concentrating hormone receptor” (Merck & Co., Inc., priority 2000, dated 2006) can be followed below.

The experiment concerns dog MCH receptor. Put plainly: Aequorin bioluminescence assay in 293-AEQ17 cells transfected with dog MCH receptor. The note with it: 293-AEQ17 cells transfected with dog MCH receptor plasmid; fractional response of aequorin luminescence; read-out: EC50 value for activation of the dog MCH receptor. In kind it is cell-based. The procedure:
Measurement of MCH receptor expression in the aequorin-expressing stable reporter cell line 293-AEQ17 (Button et al., 1993, Cell Calcium, 14, 663–671) was performed using a Luminoskan RT luminometer (Labsystems Inc., Gaithersburg, Md.) controlled by custom software written for a Macintosh PowerPC 6100. 293-AEQ17 cells (8×10^5 cells plated 18 hours before transfection in a T75 flask) were transfected with 22 μg of dog MCH receptor plasmid DNA: 264 μg lipofectamine.
Following approximately 40 hours of expression the apo-aequorin in the cells was charged for 4 hours with coelenterazine (10 μM) under reducing conditions (300 μM reduced glutathione) in ECB buffer (140 mM NaCl, 20 mM KCl, 20 mM HEPES-NaOH [pH=7.4], 5 mM glucose, 1 mM MgCl2, 1 mM CaCl2, 0.1 mg/ml bovine serum albumin). […] 100 μl of cell suspension (corresponding to 5×10^4 cells) was then injected into the test plate containing MCH, and the integrated light emission was recorded over 30 seconds, in 0.5 second units. 20 μL of lysis buffer (0.1% final Triton X-100 concentration) was then injected and the integrated light emission recorded over 10 seconds, in 0.5 second units.
The “fractional response” values for each well were calculated by taking the ratio of the integrated response to the initial challenge to the total integrated luminescence including the Triton X-100 lysis response. […]

Chain of dog MCH receptor (as listed by the source): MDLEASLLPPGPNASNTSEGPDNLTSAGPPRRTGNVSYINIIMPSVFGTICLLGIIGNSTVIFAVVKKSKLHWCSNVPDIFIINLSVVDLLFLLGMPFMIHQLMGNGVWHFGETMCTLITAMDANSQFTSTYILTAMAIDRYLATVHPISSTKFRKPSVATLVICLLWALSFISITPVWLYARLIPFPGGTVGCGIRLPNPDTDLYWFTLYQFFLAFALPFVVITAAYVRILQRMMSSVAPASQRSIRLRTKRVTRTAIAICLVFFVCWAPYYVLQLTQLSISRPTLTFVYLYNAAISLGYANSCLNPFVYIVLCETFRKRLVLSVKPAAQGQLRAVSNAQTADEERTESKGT

Turning to Melanin-concentrating hormone [MCH], the EC50 is ~0.03 µM.
